The target of one data set is T1, α1 adrenergic receptors (Rattus norvegicus, UniProt P15823).
T1 construct: cellular membranes containing α-receptors; from tissue; host or cells: liver membranes of male Sprague-Dawley rats
T1 sequence (P15823 1-515): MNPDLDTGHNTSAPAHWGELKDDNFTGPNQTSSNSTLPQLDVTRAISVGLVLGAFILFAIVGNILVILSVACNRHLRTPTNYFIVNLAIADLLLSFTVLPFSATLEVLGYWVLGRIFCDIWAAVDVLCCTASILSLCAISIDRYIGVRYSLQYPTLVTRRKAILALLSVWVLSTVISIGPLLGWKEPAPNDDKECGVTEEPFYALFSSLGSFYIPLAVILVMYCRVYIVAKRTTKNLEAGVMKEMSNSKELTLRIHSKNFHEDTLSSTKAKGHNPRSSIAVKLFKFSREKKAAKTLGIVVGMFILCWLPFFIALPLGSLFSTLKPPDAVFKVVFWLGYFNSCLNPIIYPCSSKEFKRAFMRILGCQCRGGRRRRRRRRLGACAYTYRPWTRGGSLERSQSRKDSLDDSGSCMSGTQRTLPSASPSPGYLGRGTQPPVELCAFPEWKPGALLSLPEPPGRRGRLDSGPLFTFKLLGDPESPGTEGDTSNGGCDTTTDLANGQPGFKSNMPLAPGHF
The data set can be described thus: α1 adrenergic receptor binding: competition with tritiated prazosin in rat liver membranes. Also on record: species or system male Sprague-Dawley rats. The following applies: [3H]prazosin 0.2 nM, 22° C., 50 min, mean, read-out: α1 Receptor pKI (converted). On the procedure:
(§1) The technique is well known and described in the literature. The pKI, or negative logarithm of the binding equilibrium constant, is determined from the experimental data for each receptor and the degree of selectivity of the compound in question for α1 over α2 receptors can be measured by the antilogarithm of the differences between the pKI values for the two receptors.
(§2) α-Adrenergic binding data were obtained for the two enantiomers of terazosin and the racemic compound. Tissue from the liver and cerebral cortex of male Sprague-Dawley rats was homogenized in ice-cold assay buffer (Tris-HCl, 50 mM, pH 7.0 and 22° C.). After centrifugation at 48,000 g for ten minutes the resulting pellets, containing cellular membranes containing α-receptors, were resuspended in 20 volumes of assay buffer and recentrifuged for ten minutes at 48,000 g. Liver membranes were diluted 200-fold and cerebral cortex tissues 50-fold with assay buffer.
(§3) Binding to α1 adrenergic receptors was characterized with liver membranes in competition studies using tritiated prazosin (82 Ci/mmol, DuPont NEN; 0.2 nM) and six concentrations of each test compound at half-log incremental concentrations. Binding to α2 adrenergic receptors was characterized in cerebral cortex tissue using tritiated rauwolscine (82.2 Ci/mMol, DuPont NEN; 0.5 nM) and six concentrations of competing test compound. Equilibrium binding was characterized after a 50 minute incubation period at 22° C.
(§4) where [L] is the concentration of radioligand and KD is the equilibrium dissociation constant of the radioligand for the receptor.

The next data set deals with α2 adrenergic receptors. As to the kind of experiment: α2 adrenergic receptor binding: competition with tritiated rauwolscine in rat cerebral cortex tissue. Also on record: species or system male Sprague-Dawley rats. The following applies: [3H]rauwolscine 0.5 nM, 22° C., 50 min, mean. On the procedure: as §1, §2, §3, §4
The nature of data set [1]: acute toxicity, intravenous administration in adult male mice. It is filed as in vivo. The following applies: mouse, in vivo, adult male mice. The protocol: (§5) The acute toxicities of the two enantiomeric forms of terazosin and the racemic compound were tested in adult male mice by intravenous administration, and the data appear in Table 2.
Data set [2] concerns spontaneously hypertensive rat. The data set can be described thus: antihypertensive effects in the spontaneously hypertensive rat model (blood pressure and heart rate). It is filed as in vivo. As to conditions: oral, 0.1 to 10.0 mg/kg; 1, 5, 8, and 24 hours. The protocol:
The antihypertensive effects of R(+)-, S(-)-, and racemic terazosin were tested in several well-controlled experiments in the spontaneously hypertensive rat model. All three materials were dissolved in vehicle (0.2% methylcellulose) and administered orally at doses ranging from 0.1 to 10.0 mg/kg of body weight. As a control, the vehicle was administered orally. The compounds were administered in a volume of 2.0 ml/kg. All doses of the compound and vehicle were tested simultaneously in groups of eight to sixteen rats, randomly grouped.
The arterial and systolic blood pressure and heart rate were measured thirty minutes prior to and at intervals of 1, 5, 8, and 24 hours following administration of the test compounds. […] While not holding to one theory to the exclusion of others, it is believed that the tachycardia associated with administration of the S(-)-enantiomer is due to the greater affinity of the S(-)-enantiomer for binding at the α2 adrenergic receptor and the lack of tachycardia associated with administration of the R(+)-enantiomer with its low affinity for the α2 receptors.

A further data set concerns adult male mice. As to the kind of experiment: acute toxicity, intravenous administration in adult male mice. The data set is classed as in vivo. As to conditions: mice, R(+) vs S(-). On the procedure: as §5
A further data set addresses T2, α2 adrenoceptor (Rattus norvegicus, UniProt P22909).
T2 construct: Vas deferens tissue from male Wistar rats; from tissue; host or cells: isolated vas deferens of male Wistar rats
T2 sequence (P22909 1-465): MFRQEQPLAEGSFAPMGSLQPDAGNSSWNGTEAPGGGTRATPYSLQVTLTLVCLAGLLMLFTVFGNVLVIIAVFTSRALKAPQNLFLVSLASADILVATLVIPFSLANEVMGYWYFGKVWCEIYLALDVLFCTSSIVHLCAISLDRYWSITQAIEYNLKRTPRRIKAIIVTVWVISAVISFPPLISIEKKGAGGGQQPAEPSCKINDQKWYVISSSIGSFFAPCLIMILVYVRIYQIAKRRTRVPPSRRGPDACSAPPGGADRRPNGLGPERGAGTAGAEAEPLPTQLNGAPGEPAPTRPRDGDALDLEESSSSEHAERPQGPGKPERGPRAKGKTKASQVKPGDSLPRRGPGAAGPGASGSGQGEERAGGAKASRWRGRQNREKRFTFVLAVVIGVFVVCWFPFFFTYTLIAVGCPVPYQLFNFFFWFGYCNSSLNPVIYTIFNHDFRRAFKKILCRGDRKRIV
The data set can be described thus: α2-mediated norepinephrine release / clonidine antagonism in the stimulated rat vas deferens model. Further details: species or system male Wistar rats. The protocol: The effect upon α2 -stimulated norepinephrine release of R(+)-terazosin and the S(-)-enantiomer and racemic compound were evaluated in the stimulated rat vas deferens model. Vas deferens tissue from male Wistar rats was cleaned of extraneous tissue and mounted between platinum stimulating electrodes and suspended in a tissue bath. The tissues were stimulated transmurally until the preparation stabilized, generally after about 60-80 minutes. After the twitch response became constant, a stimulus was applied at a frequency of 0.1 Hz for the duration of the dose-responsestudy.
Clonidine was used as a control for inhibiting the twitch response, with 10 minute contact times at increasing doses until the stimulated response was attenuated to zero. The stimulus was then reduced to once every five minutes and the tissue washed until the twitch response was restored. After this, the 0.1 Hz signal was again applied and clonidine was administered together with test compound. All responses were calculated as percent reduction in the twitch response.
(The pA2 values is the negative logarithm of the equilibrium dissociation constant for the antagonist-receptor complex, calculated from pharmacological functional data, and is a measure of the affinity of the antagonist at the particular receptor.)

SMILES strings stand for the structures. Counter-ions that a name gives are not always drawn.

For orientation: LD50 means the dose at which mortality reaches 50%. Low values mean a more toxic substance, high ones a less toxic substance. Regarding `COc1cc2nc(N3CCN(C(=O)C4CCCO4)CC3)nc(N)c2cc1OC` (racemic) [Racemic, 2-[4-[(tetrahydro-2-furanyl)carbonyl]-1-piperazinyl]-6,7-dimethoxy-4-quinazolinamine, reference compound], at α1 adrenergic receptors, the Ki was 0.643 nM. For the same molecule, the “α2 Receptor pKI” value on α2 adrenergic receptors is given as 6.569 ± 0.129 - log M. The molecule further returned an LD50 in data set [1] of 248 mg/kg. For the same molecule, the “increase in heart rate (tachycardia)” value in data set [2] is reported as “tachycardia was consistently observed”.
As for `COc1cc2nc(N3CCN(C(=O)[C@H]4CCCO4)CC3)nc(N)c2cc1OC` [R(+), R(+)-2-[4-[(tetrahydro-2-furanyl)carbonyl]-1-piperazinyl]-6,7-dimethoxy-4-quinazolinamine hydrochloride], the Ki on α1 adrenergic receptors is 0.964 nM. In addition, on α2 adrenergic receptors, the “α2 Receptor pKI” value is listed as 5.938 ± 0.178 - log M. The same molecule yielded an LD50 in data set [1] of 307 mg/kg. Moreover, the “LD50 increase over the corresponding S(-)-enantiomer” value with adult male mice was determined as 50%. The “increase in heart rate (tachycardia)” value in data set [2] is on record as “consistently did not produce an increase in heart rate (tachycardia)”. For the same molecule, the “pA2 (measurability)” value on α2 adrenoceptor (rat vas deferens) is “No pA2 values could be measured”. In addition, the “α2-adrenoreceptor affinity and effect on α2-adrenoreceptor mediated norepinephrine release” value at α2 adrenoceptor (tested up to 3.0 μmolar) was “devoid of α2 -adrenoreceptor affinity and thus failed to affect α2 -adrenoreceptor mediated norepinephrine release”.
For the molecule `COc1cc2nc(N3CCN(C(=O)[C@@H]4CCCO4)CC3)nc(N)c2cc1OC` [S(-), S(-)-2-[4-[(tetrahydro-2-furanyl)carbonyl]-1-piperazinyl]-6,7-dimethoxy-4-quinazolinamine], the Ki on α1 adrenergic receptors was 0.643 nM. At α2 adrenergic receptors, the “α2 Receptor pKI” value is recorded as 7.036 ± 0.199 - log M. In data set [1], this molecule registered a median lethal dose (LD50) of 205 mg/kg. Also, the “increase in heart rate (tachycardia)” value in data set [2] is reported as “tachycardia was consistently observed”.
Take `Clc1cccc(Cl)c1N=C1NCCN1` [clonidine, reference compound]: the “effect on norepinephrine release and contractile (twitch) response” value on α2 adrenoceptor (rat vas deferens, 0.1 Hz stimulation, agonist control) is “inhibits norepinephrine release from the adrenergic nerve endings and thus inhibits the contractile response of tissue”.

The values above are taken from patent US5212176A, “R(+)-terazosin” (Abbott Laboratories, priority 1990, dated 1993).
